In paper PMC6422423, “Constitutively active BRS3 is a genuinely orphan GPCR in placental mammals” (PLoS Biology, 2019):

Tested on: chicken BRS3 (cBRS3)
Test: ERK1/2 phosphorylation (WT and mutants)
Assay type: cell-based, Gallus gallus
Conditions: cBRS3 P205S; exception to the significant effects
Description: For ERK1/2 phosphorylation, HEK293 cells were seeded in 24-well plates and transfected with GRPR, NMBR, BRS3, mutants of different species’ BRS3, or an empty vector plasmid, pcDNA3.1-V5-His plasmid (300 ng). […] Each sample with an equal amount of protein was mixed with 6×SDS sample buffer, boiled for 5 min, and separated on 10% SDS-polyacrylamide gel electrophoresis (PAGE) before transferring the proteins onto a PVDF membrane. The membranes were then blocked at room temperature for 1 h with 5% milk powder in Tris-buffered saline-Tween (TBST), followed by subsequent incubation at 4°C overnight in TBST containing the different primary antibodies (1:1,000 dilution). After washing three times (10 min each time) with TBST, the membranes were incubated for 1 h in TBST containing the secondary antibodies (1:2,000 dilution), followed by washing three times (10 min each time) with TBST, prior to detection by chemiluminescence.

Substance: neuromedin B [NMB]
- ERK phosphorylation, mutant (in words): excepting P205S of cBRS3 for ERK phosphorylation activated by NMB
